Data reported in patent US8247573B2, “Substituted N-(2-mercaptopyridin-3-yl)amides as KCNQ2/3 modulators” (Gruenenthal GmbH, priority 2009, dated 2012).

Molecular target: T1, KCNQ2/3 channels (Homo sapiens, UniProt O43525+O43526)
T1 construct: expressed in transfected cells; host or cells: CHO-K1
Experiment: Fluorescence assay using a voltage-sensitive dye (fluorimetry)
Type: cell-based
Conditions: CHO-K1 cells expressing KCNQ2/3; for EC50: agonistic activity; for Emax: read-out: Fluorimetry % efficacy (I/EC50, retigabine = 100%)
Description: Pharmacological Experiments Fluorescence Assay Using a Voltage-Sensitive Dye
Human CHO-K1 cells expressing KCNQ2/3 channels are cultivated adherently at 37° C., 5% CO2 and 95% humidity in cell culture bottles (e.g. 80 cm^2 TC flasks, Nunc) with DMEM-high glucose (Sigma Aldrich, D7777) including 10% FCS (PAN Biotech, e.g. 3302-P270521) or alternatively MEM Alpha Medium (1×, liquid, Invitrogen, #22571), 10% foetal calf serum (FCS) (Invitrogen, #10270-106, heat-inactivated) and the necessary selection antibiotics.
Before being seeded out for the measurements, the cells are washed with a 1×DPBS buffer without Ca^2+/Mg^2+ (e.g. Invitrogen, #14190-094) and detached from the bottom of the culture vessel by means of Accutase (PAA Laboratories, #L11-007) (incubation with Accutase for 15 min at 37° C.). The cell count then present is determined using a CASY™ cell counter (TCC model, Schärfe System) in order subsequently to apply 20,000 to 30,000 cells/well/100 μl of the described nutrient medium, depending on density optimisation for the individual cell line, to 96-well measuring plates of the Corning™ CellBIND™ type (flat clear-bottom black polystyrene microplates, #3340). Incubation is then carried out for one hour at room temperature, without gassing or adjusting the humidity, followed by incubation for 24 hours at 37° C., 5% CO2 and 95% humidity.
The voltage-sensitive fluorescent dye from the Membrane Potential Assay Kit (Red™ bulk format part R8123 for FLIPR, MDS Analytical Technologies™) is prepared by dissolving the contents of a vessel of Membrane Potential Assay Kit Red Component A in 200 ml of extracellular buffer (ES buffer, 120 mM NaCl, 1 mM KCl, 10 mM HEPES, 2 mM CaCl2, 2 mM MgCl2, 10 mM glucose; pH 7.4). After removal of the nutrient medium, the cells are washed with 200 μl of ES buffer, then covered with a layer of 100 μl of the dye solution prepared above and incubated for 45 min at room temperature with exclusion of light.
The fluorescence measurements are carried out with a BMG Labtech FLUOstar™, BMG Labtech NOVOstar™ or BMG Labtech POLARstar™ instrument (525 nm excitation, 560 nm emission, bottom-read mode). After incubation of the dye, 50 μl of the substances to be tested in the desired concentrations, or 50 μl of ES buffer for control purposes, are introduced into separate cavities of the measuring plate and incubated for 30 min at room temperature whilst being shielded from light. The fluorescence intensity of the dye is then measured for 5 min and the fluorescence value F1 of each well is thus determined at a given, constant time. 15 μl of a […] KCl solution […] are then added to each well. The change in fluorescence is subsequently measured until all relevant measured values have been obtained (mainly […]). At a given time after KCl application, a fluorescence value F2 is determined, in this case at the time of the fluorescence peak.
For calculation, the fluorescence intensity F2 is compared with the fluorescence intensity F1, and the agonistic activity of the target compound on the potassium channel is determined therefrom. F2 and F1 are calculated as follows: […]
In order to determine whether a substance has an agonistic activity,
[formula] is determined by adding to the reaction batch only the buffer solution instead of the substance to be tested, determining the value F1K of the fluorescence intensity, adding the potassium ions as described above and measuring a value F2K of the fluorescence intensity. Then F2K and F1K are calculated as follows: […]
A substance has an agonistic activity on the potassium channel if
Independently of the comparison of
[formula] it is also possible to conclude that a target compound has an agonistic activity if an increase in
[formula] is to be observed as the dosage of the target compound increases.
Calculations of EC50 values are carried out with the aid of Prism v4.0 software (GraphPad Softwares™).

[1] = relative to retigabine = 100%, negative values = antagonistic

EC50 [µM]	Emax [1] [%]	Fluorimetry % efficacy (I/EC50, retigabine = 100%) [1] [%]	SMILES
0.141	106	–	O=C(Cc1cccs1)Nc1cccnc1SCCCc1ccccc1 [Example 33, N-[2-(3-Phenyl-propylsulfanyl)-pyridin-3-yl]-2-thiophen-2-yl acetamide]
–	43	–	O=C(Nc1cccnc1SCCS(=O)(=O)c1cccc(C(F)(F)F)c1)c1ccc(Cl)nc1 [Example 35, 6-Chloro-N-[2-[2-[[3-(trifluoromethyl)phenyl]sulfonyl]-ethylsulfanyl]-pyridin-3-yl]-pyridine-3-carboxylic acid amide]
–	38	–	O=C(Cc1ccncc1)Nc1cccnc1SCCS(=O)(=O)c1cccc(C(F)(F)F)c1 [Example 36, 2-Pyridin-4-yl-N-[2-[2-[[3-(trifluoromethyl)phenyl]sulfonyl]-ethylsulfanyl]-pyridin-3-yl]acetamide]
–	31	–	O=C(Cc1cccc(O)c1)Nc1cccnc1SCCS(=O)(=O)c1cccc(C(F)(F)F)c1 [Example 37, 2-(3-Hydroxyphenyl)-N-[2-[2-[[3-(trifluoromethyl)phenyl]sulfonyl]-ethylsulfanyl]-pyridin-3-yl]acetamide]
–	35	–	O=C(Nc1cccnc1SCCS(=O)(=O)c1cccc(C(F)(F)F)c1)C1CCCOC1 (stereo not drawn) [Example 38, N-[2-[2-[[3-(Trifluoromethyl)phenyl]sulfonyl]-ethylsulfanyl]-pyridin-3-yl]-tetrahydropyrane-3-carboxylic acid amide]
0.363	139	–	O=C(CC1CCCCO1)Nc1cccnc1SCCS(=O)(=O)c1cccc(C(F)(F)F)c1 (stereo not drawn) [Example 39, 2-Tetrahydropyran-2-yl-N-[2-[2-[[3-(trifluoromethyl)phenyl]sulfonyl]-ethylsulfanyl]-pyridin-3-yl]acetamide]
–	52	–	O=C(CC1CCOCC1)Nc1cccnc1SCCS(=O)(=O)c1cccc(C(F)(F)F)c1 [Example 40, 2-Tetrahydropyran-4-yl-N-[2-[2-[[3-(trifluoromethyl)phenyl]sulfonyl]-ethylsulfanyl]-pyridin-3-yl]acetamide]
0.099	127	–	O=C(CCC1CCCCC1)Nc1cccnc1SCCS(=O)(=O)c1cccc(C(F)(F)F)c1 [Example 41, 3-Cyclohexyl-N-[2-[2-[[3-(trifluoromethyl)phenyl]sulfonyl]-ethylsulfanyl]-pyridin-3-yl]propionamide]
0.153	80	–	O=C(CC1CCCCC1)Nc1cccnc1SCCSc1ccccc1 [Example 44, 2-Cyclohexyl-N-[2-(2-phenylsulfanyl-ethylsulfanyl)-pyridin-3-yl]acetamide]
–	–	58	O=C(Cc1cccs1)Nc1cccnc1SCCOc1ccccc1 [Example 45, N-[2-(2-Phenoxy-ethylsulfanyl)-pyridin-3-yl]-2-thiophen-2-yl acetamide]
–	50	–	O=C(Cc1cccnc1)Nc1cccnc1SCCS(=O)(=O)c1cccc(C(F)(F)F)c1 [Example 46, 2-Pyridin-3-yl-N-[2-[2-[[3-(trifluoromethyl)phenyl]sulfonyl]-ethylsulfanyl]-pyridin-3-yl]acetamide]
0.265	95	–	O=C(Nc1cccnc1SCCS(=O)(=O)c1cccc(C(F)(F)F)c1)c1cccc(O)c1 [Example 47, 3-Hydroxy-N-[2-[2-[[3-(trifluoromethyl)phenyl]sulfonyl]-ethylsulfanyl]-pyridin-3-yl]benzamide]
0.174	93	–	O=C(Nc1cccnc1SCCS(=O)(=O)c1cccc(C(F)(F)F)c1)C1CCCCO1 (stereo not drawn) [Example 48, N-[2-[2-[[3-(Trifluoromethyl)phenyl]sulfonyl]-ethylsulfanyl]-pyridin-3-yl]-tetrahydropyrane-2-carboxylic acid amide]
0.019	108	–	O=C(CC1CCCCCC1)Nc1cccnc1SCCS(=O)(=O)c1cccc(C(F)(F)F)c1 [Example 49, 2-Cycloheptyl-N-[2-[2-[[3-(trifluoromethyl)phenyl]sulfonyl]-ethylsulfanyl]-pyridin-3-yl]acetamide]
0.106	32	–	O=C(Nc1cccnc1SCCS(=O)(=O)c1cccc(C(F)(F)F)c1)c1ccc(F)cc1O [Example 51, 4-Fluoro-2-hydroxy-N-[2-[2-[[3-(trifluoromethyl)phenyl]sulfonyl]-ethylsulfanyl]-pyridin-3-yl]benzamide]
0.208	59	–	O=C(CC1CCc2ccccc2C1)Nc1cccnc1SCCS(=O)(=O)c1cccc(C(F)(F)F)c1 (stereo not drawn) [Example 52, 2-(1,2,3,4-Tetrahydronaphthalen-2-yl)-N-[2-[2-[[3-(trifluoromethyl)phenyl]sulfonyl]-ethylsulfanyl]-pyridin-3-yl]acetamide]
–	27.4	–	O=C(Nc1cccnc1SCCS(=O)(=O)c1cccc(C(F)(F)F)c1)c1ccccc1O [Example 53, 2-Hydroxy-N-[2-[2-[[3-(trifluoromethyl)phenyl]sulfonyl]-ethylsulfanyl]-pyridin-3-yl]benzamide]
3.6	84.8	–	O=C1CCCC(CC(=O)Nc2cccnc2SCCS(=O)(=O)c2cccc(C(F)(F)F)c2)C1 (stereo not drawn) [Example 55, 2-(3-Oxocyclohexyl)-N-[2-[2-[[3-(trifluoromethyl)phenyl]sulfonyl]-ethylsulfanyl]-pyridin-3-yl]acetamide]
0.349	98.1	–	Cc1ccnc(SCCS(=O)(=O)c2cccc(C(F)(F)F)c2)c1NC(=O)Cc1cccs1 [Example 56, N-[4-Methyl-2-[2-[[3-(trifluoromethyl)phenyl]sulfonyl]-ethylsulfanyl]-pyridin-3-yl]-2-thiophen-2-yl acetamide]
0.0565	134	–	O=C(CCC1CCc2ccccc2C1)Nc1cccnc1SCCS(=O)(=O)c1cccc(C(F)(F)F)c1 (stereo not drawn) [Example 57, 3-(1,2,3,4-Tetrahydronaphthalen-2-yl)-N-[2-[2-[[3-(trifluoromethyl)phenyl]sulfonyl]-ethylsulfanyl]-pyridin-3-yl]propionamide]
0.0475	167	–	O=C(CCC1CCCCCC1)Nc1cccnc1SCCS(=O)(=O)c1cccc(C(F)(F)F)c1 [Example 58, 3-Cycloheptyl-N-[2-[2-[[3-(trifluoromethyl)phenyl]sulfonyl]-ethylsulfanyl]-pyridin-3-yl]propionamide]
0.925	139	–	O=C(Cc1cc2ccccc2s1)Nc1cccnc1SCCS(=O)(=O)c1cccc(C(F)(F)F)c1 [Example 59, 2-(Benzo[b]thiophen-2-yl)-N-[2-[2-[[3-(trifluoromethyl)phenyl]sulfonyl]-ethylsulfanyl]-pyridin-3-yl]acetamide]
1.02	101	–	O=C(Cc1ccccn1)Nc1cccnc1SCCS(=O)(=O)c1cccc(C(F)(F)F)c1 [Example 60, 2-Pyridin-2-yl-N-[2-[2-[[3-(trifluoromethyl)phenyl]sulfonyl]-ethylsulfanyl]-pyridin-3-yl]acetamide]
0.0275	129	–	CC(C)(C)CC(=O)Nc1cccnc1SCCSc1ccc(F)cc1 [Example 61, N-[2-[2-[(4-Fluorophenyl)sulfanyl]-ethylsulfanyl]-pyridin-3-yl]-3,3-dimethyl butyramide]
0.0235	168	–	O=C(CC1CC2CCC1C2)Nc1cccnc1SCCS(=O)(=O)c1cccc(C(F)(F)F)c1 (stereo not drawn) [Example 62, 2-(5-Bicyclo[2.2.1]heptanyl)-N-[2-[2-[[3-(trifluoromethyl)phenyl]sulfonyl]-ethylsulfanyl]-pyridin-3-yl]acetamide]
